The target in one data set is T1, ML-IAP BIR3 domain (Homo sapiens, UniProt Q96CA5).
T1 construct: ML-IAP BIR3 domain (residues 63-179), fused to a His-tag; His-tag
T1 sequence (Q96CA5 63-179): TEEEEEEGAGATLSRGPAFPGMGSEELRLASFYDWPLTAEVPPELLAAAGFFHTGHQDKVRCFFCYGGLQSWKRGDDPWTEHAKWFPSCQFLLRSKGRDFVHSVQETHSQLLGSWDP
Put plainly: FP competitive binding assay to ML-IAP BIR3. Conditions: FP tracer; read-out: affinity of tracer for ML-IAP. On the procedure: In order to test the binding ability of conformationally constrained Smac mimetics to other IAP proteins (ML-IAP, cIAP1, and cIAP2) binding assay conditions were developed and optimized. The recombinant cIAP1 BIR3 domain (residues 253-363), cIAP2 BIR3 domain (residues 238-349), and ML-IAP BIR3 domain (residues 63-179), fused to a His-tag, were used in the binding assays. Competitive binding assays for other IAP proteins were performed similarly as that described for XIAP BIR3. […] The following protein concentration and tracer were used in the competitive assay: 10 nM cIAP1 and 2 nM SM5F, 25 nM cIAP2 and 2 nM SM5F, 300 nM ML-IAP and 5 nM SM5F
The competitive binding curves of SM-406 and SM-428 to BIR^3 domains of four members of IAP proteins were determined using a fluorescence-polarization-based binding assay. The IAP proteins tested include: (A) XIAP; (B) cIAP1; (C) cIAP2; (D) ML-IAP.

In the next data set the target is T2, cIAP2 BIR3 domain (Homo sapiens, UniProt Q13489).
T2 construct: cIAP2 BIR3 domain (residues 238-349); His-tag
T2 sequence (Q13489 238-349): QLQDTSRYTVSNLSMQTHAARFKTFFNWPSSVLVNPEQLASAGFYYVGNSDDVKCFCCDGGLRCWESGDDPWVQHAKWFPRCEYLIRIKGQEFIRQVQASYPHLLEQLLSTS
Briefly: FP competitive binding assay to cIAP2 BIR3. As to conditions: FP tracer; read-out: affinity of tracer for cIAP2.

Another data set addresses T3, cIAP1 BIR3 domain (Homo sapiens, UniProt Q13490).
T3 construct: cIAP1 BIR3 domain (residues 253-363); His-tag
Put plainly: FP competitive binding assay to cIAP1 BIR3. Conditions: FP tracer; read-out: affinity of tracer for cIAP1.

Data set [1] relates to MDA-MB-231 human breast cancer cell line. Put plainly: Cell growth inhibition, WST-8 assay, MDA-MB-231. As to conditions: for IC50: Homo sapiens, MDA-MB-231, 96 h; for cellular activity in MDA-MB-231 compared with SM-122: relative to SM-122. Format: cell-based. On the procedure:
(§1) The effect of the compounds of the present invention on the growth of various cancer cell lines was tested. Cells were seeded in 96-well flat bottom cell culture plates at a density of 3000 cells/well with a tested compound and incubated at 37° C. in an atmosphere of 95% air and 5% CO2 for 4 days. […] Dojindo Molecular Technologies, Inc., Gaithersburg, Md.). […] The absorbance of the samples was measured at 450 nm using a ULTRA Tecan Reader (Molecular Device). […] The ability of SM-406 to inhibit cell growth as a single agent was tested in the MDA-MB-231 breast cancer cell line, SK-OV-3 and OVCAR-4 ovarian cancer cell lines and SK-MeI-2 melanoma cancer cell line. Cells were treated for 4 days. Cell growth was determined using a WST-based assay.
(Tetrazolium assays rely on reduction of a dye to a coloured formazan, in cell work by metabolically active cells.)

In data set [2] the test system is ovarian cancer SK-OV-3 cell line. Put plainly: Induction of cell death, trypan blue exclusion, SK-OV-3. Type of data set: cell-based. On the procedure: (§2) The ability of YP-337 to induce cell death was tested in the breast cancer MDA-MB-231 and ovarian cancer SK-OV-3 cell lines (Table 4). Cells were treated with YP-337 for 48 hours and cell viability was determined using the trypan blue exclusion assay.

Data set [3] deals with breast cancer MDA-MB-231 cell line. Put plainly: Induction of cell death, trypan blue exclusion, MDA-MB-231. Type of data set: cell-based. On the procedure:
as §2

Data set [4] has as its system SK-OV-3 ovarian cancer cell line. Put plainly: Cell growth inhibition, WST-8 assay, SK-OV-3. Type of data set: cell-based. As to conditions: for IC50: Homo sapiens, SK-OV-3, 96 h; for cellular activity in SK-OV-3 compared with SM-122: relative to SM-122. On the procedure: as §1
For data set [5], the system named is MDA-MB-231 breast cancer xenograft. Briefly: MDA-MB-231 breast cancer xenograft model in nude mice. Format: in vivo. On the procedure: The ability of SM-406 (AT-406) to act as anti-tumor agent was tested in the MDA-MB-231 breast cancer xenograft (nude mice) model. SM-406 (AT-406) was administered qd×5 per week for two weeks. […] Body weight loss was less in weekly dosing (<5%) compared to the other dosing schedules.

The subject of data set [6] is OVCAR-4 ovarian cancer cell line. Briefly: Cell growth inhibition, WST-based assay, OVCAR-4. Conditions: Homo sapiens, OVCAR-4, 96 h; single agent, 4 days, FIG. 8. On the procedure:
(§3) The ability of SM-406 to inhibit cell growth as a single agent was tested in the MDA-MB-231 breast cancer cell line, SK-OV-3 and OVCAR-4 ovarian cancer cell lines and SK-MeI-2 melanoma cancer cell line. Cells were treated for 4 days. Cell growth was determined using a WST-based assay.

The next data set deals with HL-60 leukemia cell line. Briefly: Cell growth inhibition, WST-based assay, HL-60. As to conditions: Homo sapiens, HL-60, 96 h; single agent, 4 days, FIG. 9. On the procedure: (§4) The ability of SM-406 to inhibit cell growth as a single agent was tested in the HL-60 and SR leukemia cell lines. Cells were treated for 4 days. Cell growth was determined using a WST-based assay.

The subject of data set [7] is SK-Mel-2 melanoma cancer cell line. Briefly: Cell growth inhibition, WST-based assay, SK-Mel-2. As to conditions: Homo sapiens, SK-MEL-2, 96 h; single agent, 4 days, FIG. 8. On the procedure:
as §3

Data set [8] addresses T4, XIAP BIR3 (Homo sapiens, UniProt P98170). Put plainly: Fluorescence polarization (FP) based competitive binding assay to XIAP BIR3. Further details: human XIAP (residues 241-356) fused to His-tag; His-tag. As to conditions: for IC50: FP binding, XIAP BIR3 30 nM, SM5F 5 nM; for binding affinity to XIAP BIR3 compared with SM-122: relative to carbocyclic analog SM-122. For orientation: Fluorescence polarisation rises when a labelled molecule tumbles more slowly, as on binding a larger partner.
Target sequence in this assay (P98170 241-356): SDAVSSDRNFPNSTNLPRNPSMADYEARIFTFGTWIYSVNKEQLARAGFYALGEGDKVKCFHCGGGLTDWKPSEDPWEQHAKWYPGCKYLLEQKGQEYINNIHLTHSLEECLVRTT

The subject of a further data set is SR leukemia cell line. Briefly: Cell growth inhibition, WST-based assay, SR. As to conditions: 96 h; single agent, 4 days, FIG. 9. On the procedure:
as §4

Data set [9] deals with T4, XIAP BIR3. Conditions: background statement; cited from earlier work.
Target sequence in this assay (P98170 241-356 limits assumed): as the sequence (P98170 241-356) above
Setting [10] is: 4 days, WST-8, read-out: MDA-MB-231 IC50.
The mark [11] stands for this setting: 4 days, WST-8, read-out: SK-OV-3 IC50.

The values below come from patent publication US8278293B2, “Diazo bicyclic Smac mimetics and the uses thereof” (The Regents of the University of Michigan, priority 2007, dated 2012).

Like-named read-outs stand apart in the source and are kept apart here. Square brackets hold non-standard residues; d marks the D form. Peptide text beside a SMILES is read from it. * marks the point of attachment. 5FAM = O=C1OC2(c3ccc(O)cc3Oc3cc(O)ccc32)c2ccc(C(=O)*)cc21; Abu = CC[C@H](N)C(=O)O

T3 sequence (Q13490 253-363): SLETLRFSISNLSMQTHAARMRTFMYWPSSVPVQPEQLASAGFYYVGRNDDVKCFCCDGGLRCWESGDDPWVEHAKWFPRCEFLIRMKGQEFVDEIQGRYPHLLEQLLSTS

Consider `CC[C@H](N)C(=O)N[C@@H](CCCNC(=N)N)C(=O)N1CCC[C@H]1C(=O)N[C@@H](Cc1ccccc1)C(=O)N[C@@H](CCCCNC(=O)c1ccc2c(c1)C(=O)OC21c2ccc(O)cc2Oc2cc(O)ccc21)C(N)=O` [SM5F, AbuRPF-K-(5-Fam)-NH2] (H-[Abu]RPFK(5FAM)-NH2; N-terminus assumed), for which the values for the Kd on ML-IAP BIR3 domain, at cIAP2 BIR3 domain and at cIAP1 BIR3 domain were 160 nM, 6.6 nM and 4.1 nM, respectively.
The term IC50 denotes the concentration that gives 50% inhibition. `CN[C@@H](C)C(=O)N[C@H]1CN(C(=O)Cc2ccccc2)CC[C@H]2CC[C@@H](C(=O)NC(c3ccccc3)c3ccccc3)N2C1=O` [SM-337]: the IC50 in [1] (read-out: MDA-MB-231 IC50 (μM)) and in data set [4] (read-out: SK-OV-3 IC50 (μM)) was under 1 µM throughout. For the same molecule, the “cellular activity in MDA-MB-231 compared with SM-122” value in data set [1] is recorded as “equal to or better than that of SM-122”. In addition, the “Approximate % of dead cells after 48 h, SK-OV-3” value was about 20% in data set [2] (0.1 nM), about 40% in [2] (1 nM), about 65% in data set [2] (10 nM) and about 75% in [2] (100 nM). Further, the “Approximate % of dead cells after 48 h, MDA-MB-231” value was about 10% in [3] (0.1 nM), about 35% in data set [3] (1 nM), about 60% in data set [3] (10 nM) and about 75% in data set [3] (100 nM). The “cellular activity in SK-OV-3 compared with SM-122” value in [4] was “equal to or better than that of SM-122”.
For `CN[C@@H](C)C(=O)N[C@H]1CN(C(=O)CC(C)C)CC[C@H]2CC[C@@H](C(=O)NC(c3ccccc3)c3ccccc3)N2C1=O` [SM-406], the body weight loss in data set [5] (200 mg/kg, weekly dosing) is reported as under 5%. Also, the dose-dependent weight loss result in [5] (100 and 200 mg/kg, qd×5 per week for two weeks) is reported as “up to 11%”. The 50% inhibitory concentration (IC50) in data set [6] was 926 nM; with HL-60 leukemia cell line, 58 nM; in data set [7], 6640 nM; on XIAP BIR3 [8] it was under 100 nM; in data set [1] (setting [10]), under 1 µM; in [1] (single agent, 4 days, FIG. 8, read-out: IC50, cell growth, MDA-MB-231), 0.082 µM. In addition, the 50% inhibitory concentration (IC50) was under 1 µM in data set [4] (setting [11]); 0.238 µM in [4] (single agent, 4 days, FIG. 8, read-out: IC50, cell growth, SK-OV-3); 7290 nM with SR leukemia cell line.
`CN[C@@H](C)C(=O)N[C@H]1CN(C(=O)CC(C)C)CC[C@H]2CC[C@@H](C(=O)N[C@@H]3CCCc4ccccc43)N2C1=O` [SM-427]: the values for the 50% inhibitory concentration (IC50) (on XIAP BIR3 [8]; in data set [1] (setting [10]); in [4] (setting [11])) were under 1000 nM, under 1 µM and under 1 µM, respectively.
Take `CN[C@@H](C)C(=O)N[C@H]1CN(C(=O)CC(C)C)CC[C@H]2CC[C@@H](C(=O)NCc3cccc(-c4ccccc4)c3)N2C1=O` [SM-429]: the 50% inhibitory concentration (IC50) is under 1000 nM on XIAP BIR3 [8], under 10 µM in data set [1] (setting [10]) and under 10 µM in data set [4] (setting [11]).
Take `CN[C@@H](C)C(=O)N[C@H]1CN(C(=O)CC(C)C)CC[C@H]2CC[C@@H](C(=O)NCc3cccc4ccccc34)N2C1=O` [SM-430]: the IC50 at XIAP BIR3 [8] is under 1000 nM; in data set [1] (setting [10]), under 10 µM; in [4] (setting [11]), under 10 µM.
Take `CN[C@@H](C)C(=O)N[C@H]1CN(C(=O)CC(C)C)CC[C@H]2CC[C@@H](C(=O)NC3CCc4ccccc43)N2C1=O` (some centres unmarked) [SM-431]: the IC50 on XIAP BIR3 [8] was under 1000 nM; in [1] (setting [10]), under 1 µM; in [4] (setting [11]), under 1 µM.
As to `CN[C@@H](C)C(=O)N[C@H]1CN(C(=O)CC(C)C)CC[C@H]2CC[C@@H](C(=O)NCC(c3ccccc3)c3ccccc3)N2C1=O` [SM-432], the 50% inhibitory concentration (IC50) was under 1000 nM at XIAP BIR3 [8], under 10 µM in [1] (setting [10]) and under 10 µM in data set [4] (setting [11]).
With `CN[C@@H](C)C(=O)N[C@H]1CN(C(=O)CC(C)C)CC[C@H]2CC[C@@H](C(=O)NCc3ccccc3-c3ccccc3)N2C1=O` [SM-433], the IC50 is under 1000 nM at XIAP BIR3 [8], under 10 µM in data set [1] (setting [10]) and under 10 µM in [4] (setting [11]).
With `CN[C@@H](C)C(=O)N[C@H]1CN(C(=O)CC(C)C)CC[C@H]2CC[C@@H](C(=O)NCc3ccc(-c4ccccc4)cc3)N2C1=O` [SM-434], the IC50 on XIAP BIR3 [8] was under 10000 nM; in [1] (setting [10]), under 10 µM; in [4] (setting [11]) it was under 10 µM.
`CN[C@@H](C)C(=O)N[C@H]1CN(C)CC[C@H]2CC[C@@H](C(=O)NC(c3ccccc3)c3ccccc3)N2C1=O` [YP-245P3]: on XIAP BIR3 [8], the “binding affinity to XIAP BIR3 compared with SM-122” value is on record as “less than that of SM-122”. Also, the IC50 in data set [1] (read-out: MDA-MB-231 IC50 (μM)) is over 1 µM. In data set [1], the “cellular activity in MDA-MB-231 compared with SM-122” value is recorded as “less than that of SM-122”. In data set [4], the “cellular activity in SK-OV-3 compared with SM-122” value was “less than that of SM-122”.
Turning to `CN[C@@H](C)C(=O)N[C@H]1CN(Cc2ccccc2)CC[C@H]2CC[C@@H](C(=O)NC(c3ccccc3)c3ccccc3)N2C1=O` [YP-246P], the “binding affinity to XIAP BIR3 compared with SM-122” value at XIAP BIR3 [8] is given as “less than that of SM-122”. The IC50 in [1] (read-out: MDA-MB-231 IC50 (μM)) was over 1 µM. Further, the “cellular activity in MDA-MB-231 compared with SM-122” value in [1] was “less than that of SM-122”. For the same molecule, the “cellular activity in SK-OV-3 compared with SM-122” value in data set [4] is “less than that of SM-122”.

B1: mature Smac protein: mature Smac/DIABLO polypeptide, endogenous inhibitor of XIAP (protein, UniProt Q9NR28 22-239, looked up)
Diablo IAP-binding …: LCVPVVANFKKRCFSELIRPWHKTVTIGFGVTLCAVPIAQKSEPHSLSSEALMRRAVSLVTDSTSTFLSQTTYALIEAITEYTKAVYTLTSLYRQYTSLLGKMNSEEEDEVWQVIIGARAEMTSKHQEYLKLETTWMTAVGLSEMAAEAAYQTGADQASITARNHIQLVKLQVEEVHQLSRKAETKLAEAQIEELRQKTQEEGEERAESEQEAYLRED
For B1, in the data set with XIAP BIR3 [9], the Kd is 420 nM.
